Measurements published in patent US9156831B2, “Chemical compounds” (ASTRAZENECA AB, priority 2013, dated 2015).

Columns and labels:
CALU6 = test: Cell proliferation assay (MTS); assay type: cell-based, human
Description: (§1) The sensitivity of a panel of human cancer cell lines to the effects of compounds was determined in a standard proliferation assay. Cell lines were sourced through the AstraZeneca Cell Bank.
(§2) Cells were plated in 96 well plates at densities of 1000-6000 cells per well in RPMI media containing 10% FBS. After incubation at 37° C. for 16 hours, various concentrations of compound were added to the assay plates. After incubation for an additional 72 h, the viable cells were determined by the addition of MTS reagent (Promega #3582) to each well for 2 h. MTS is a tetrazolium salt that is bioreduced by metabolically active cells in the presence of an electron coupling reagent to formazan. The formazan product was then quantitated by absorbance at 490 nm, as an indicator of the relative number of live cells. In order to determine the GI50 (concentration at which growth of cells was inhibited by 50%) the relative number of cells present at the time of drug addition was determined by comparison with the MTS readout before the drug was added, and this value was subtracted from the 72 hr value of untreated cells as a measure of cell growth during the assay.

SKBR3 = test: Cell proliferation assay (MTS); assay type: cell-based, human
Description: (§3) The sensitivity of a panel of human cancer cell lines to the effects of compounds was determined in a standard proliferation assay.
as §2

H322 = test: Cell proliferation assay (MTS); assay type: cell-based, human
Description: as §3
(§4) Cells were plated in 96 well plates at densities of 1000-6000 cells per well in RPMI media containing 10% FBS. After incubation at 37° C. for 16 hours, various concentrations of compound were added to the assay plates. After incubation for an additional 72 h, the viable cells were determined by the addition of MTS reagent (Promega #3582) to each well for 2 h. […] The formazan product was then quantitated by absorbance at 490 nm, as an indicator of the relative number of live cells. In order to determine the GI50 (concentration at which growth of cells was inhibited by 50%) the relative number of cells present at the time of drug addition was determined by comparison with the MTS readout before the drug was added, and this value was subtracted from the 72 hr value of untreated cells as a measure of cell growth during the assay.

CAPAN1 = test: Cell proliferation assay (MTS); assay type: cell-based, human
Description: as §3, §2

HCC1806 = test: Cell proliferation assay (MTS); assay type: cell-based, human
Description: as §3, §2

H647 = test: Cell proliferation assay (MTS); assay type: cell-based, human
Description: as §3, §2

RS411 = test: Cell proliferation assay (MTS); assay type: cell-based, human
Description: as §3, §2

SW48 = test: Cell proliferation assay (MTS); assay type: cell-based, human
Description: as §1, §2

OCUM1 = test: Cell proliferation assay (MTS); assay type: cell-based, human
Description: as §1, §2

BEL7405 = test: Cell proliferation assay (MTS); assay type: cell-based, human
Description: as §1, §2

SKMES1 = test: Cell proliferation assay (MTS); assay type: cell-based, human
Description: as §3, §2

H520 = test: Cell proliferation assay (MTS)
Description: as §3, §2

RAJI = test: Cell proliferation assay (MTS); assay type: cell-based, human
Description: as §3, §2

HLE = test: Cell proliferation assay (MTS); assay type: cell-based, human
Description: as §3, §4

SU8686 = test: Cell proliferation assay (MTS); assay type: cell-based, human
Description: as §3, §4

OCIAML2 = test: Cell proliferation assay (MTS); assay type: cell-based, human
Description: as §3, §2

SNU368 = test: Cell proliferation assay (MTS); assay type: cell-based, human
Description: as §3, §2

BFTC905 = test: Cell proliferation assay (MTS); assay type: cell-based, human
Description: as §3, §4

HCC70 xenograft = test: Tumour growth inhibition, HCC70 xenograft model; assay type: in vivo, mouse; settings: Example 3 alone 25 mg/kg BID every day; FIG. 13
Description: HCC70 is breast tumour cell line which is deficient in PTEN gene expression. Female Swiss athymic nude mice (swiss nu/nu—AZUK) were transplanted subcutaneously with the breast ductal epithelial tumour cell line HCC70 (ATCC—CRL2315) cells. 1×10^6 cells in 50% matrigel (BD Bioscience) were injected s.c. on the left flank of the animals.
Animals were randomised into groups of 10-15 when tumours reached a volume of ˜200-300 mm^3 and treatment commenced. Animals were dosed for 3-4 weeks by peroral route, with compound in a suitable vehicle at defined doses and schedules. Tumours were measured two-three times weekly by caliper and volume of tumours calculated using elliptical formula (pi/6×width×width×length).

H1299 = test: Cell proliferation assay (MTS); assay type: cell-based, human
Description: as §3, §2

NUGC4 = test: Cell proliferation assay (MTS); assay type: cell-based, human
Description: as §3, §2

HUPT3 = test: Cell proliferation assay (MTS); assay type: cell-based, human
Description: as §1, §2

A2058 = test: Cell proliferation assay (MTS); assay type: cell-based, human
Description: as §3, §2

MKN1 = test: Cell proliferation assay (MTS); assay type: cell-based, human
Description: as §3, §2

AMO1 = test: Cell proliferation assay (MTS); assay type: cell-based, human
Description: as §1, §2

SW1710 = test: Cell proliferation assay (MTS); assay type: cell-based, human
Description: as §3, §4

HGC27 = test: Cell proliferation assay (MTS); assay type: cell-based, human
Description: as §3, §2

KP4 = test: Cell proliferation assay (MTS); assay type: cell-based, human
Description: as §1, §2

NOMO1 = test: Cell proliferation assay (MTS); assay type: cell-based, human
Description: as §3, §2

HCA7 = test: Cell proliferation assay (MTS); assay type: cell-based, human
Description: as §3, §4

BXPC3 = test: Cell proliferation assay (MTS); assay type: cell-based, human
Description: as §3, §4

DU145 = test: Cell proliferation assay (MTS); assay type: cell-based, human
Description: as §3, §4

HCT15 = test: Cell proliferation assay (MTS); assay type: cell-based, human
Description: as §3, §2

RKO = test: Cell proliferation assay (MTS); assay type: cell-based, human
Description: as §3, §2

T47D = test: Cell proliferation assay (MTS); assay type: cell-based, human
Description: as §3, §2

EBC1 = test: Cell proliferation assay (MTS); assay type: cell-based, human
Description: as §3, §4

QGP1 = test: Cell proliferation assay (MTS); assay type: cell-based, human
Description: as §3, §4

RPM18226 = test: Cell proliferation assay (MTS); assay type: cell-based, human
Description: as §3, §4

SNU739 = test: Cell proliferation assay (MTS); assay type: cell-based, human
Description: as §1, §2

[1] = Homo sapiens, Colon, PIK3CA MUT
[2] = Homo sapiens, Blood/lymph, PIK3CA WT

For `CCn1nc(C2CCN(C(=O)CCO)CC2)nc1-c1cnc(N)c(-c2nnc(C(C)(C)C)o2)n1` [Example 3, 1-(4-(5-(5-amino-6-(5-tert-butyl-1,3,4-oxadiazol-2-yl)pyrazin-2-yl)-1-ethyl-1H-1,2,4-triazol-3-yl)piperidin-1-yl)-3-hydroxypropan-1-one], the Category (CALU6) was “Resistant (resistant (GI50>1.0 μM))”, the GI50 (CALU6; Homo sapiens, Calu-6, Lung, PIK3CA WT) was 26.2 µM and the Category (SKBR3) was “Resistant (resistant (GI50>1.0 μM))”. The GI50 (SKBR3; Homo sapiens, SK-BR-3, Breast, PIK3CA WT) was 1.59 µM, the Category (H322) was “Resistant (resistant (GI50>1.0 μM))” and the GI50 (H322; Homo sapiens, NCI-H322, Lung, PIK3CA WT) was 8.23 µM. For the same compound, the Category (CAPAN1) was “Resistant (resistant (GI50>1.0 μM))”, the GI50 (CAPAN1; Homo sapiens, CAPAN-1, Pancreas, PIK3CA WT) was 30 µM and the Category (HCC1806) was “Resistant (resistant (GI50>1.0 μM))”. The GI50 (HCC1806; Homo sapiens, Breast, PIK3CA WT) was 16.7 µM, the Category (H647) was “Resistant (resistant (GI50>1.0 μM))” and the GI50 (H647; Homo sapiens, NCI-H647, Lung, PIK3CA WT) was 11.3 µM. For the same compound, the Category (RS411) was “Sensitive (sensitive (GI50<=1.0 μM))”, the GI50 (RS411; Homo sapiens, RS4-11, Blood/lymph, PIK3CA WT) was 0.0903 µM and the Category (SW48) was “Sensitive (sensitive (GI50<=1.0 μM))”. For the same compound, the GI50 (SW48; [1]) was 0.513 µM, the Category (OCUM1) was “Resistant (resistant (GI50>1.0 μM))” and the GI50 (OCUM1; Homo sapiens, Stomach, PIK3CA WT) was 2.33 µM. For the same compound, the Category (BEL7405) was “Resistant (resistant (GI50>1.0 μM))”, the GI50 (BEL7405; Homo sapiens, Liver, PIK3CA WT) was 8.11 µM and the Category (SKMES1) was “Resistant (resistant (GI50>1.0 μM))”. For the same compound, the GI50 (SKMES1; Homo sapiens, SK-MES-1, Lung, PIK3CA WT) was 19.5 µM, the Category (H520; H520) was “Resistant (resistant (GI50>1.0 μM))” and the GI50 (H520; Homo sapiens, NCI-H520) was 6.62 µM. For the same compound, the Category (RAJI) was “Resistant (resistant (GI50>1.0 μM))”, the GI50 (RAJI; [2]) was 30 µM and the Category (HLE) was “Resistant (resistant (GI50>1.0 μM))”. The GI50 (HLE; Homo sapiens, Liver, PIK3CA WT) was 13.5 µM, the Category (SU8686) was “Resistant (resistant (GI50>1.0 μM))” and the GI50 (SU8686; Homo sapiens, SU.86.86, Pancreas, PIK3CA WT) was 18 µM. For the same compound, the Category (OCIAML2) was “Resistant (resistant (GI50>1.0 μM))”, the GI50 (OCIAML2; Homo sapiens, OCI-AML2, Blood/lymph, PIK3CA WT) was 30 µM and the Category (SNU368) was “Resistant (resistant (GI50>1.0 μM))”. The GI50 (SNU368; Homo sapiens, Liver, PIK3CA WT) was 1.6 µM, the Category (BFTC905) was “Sensitive (sensitive (GI50<=1.0 μM))” and the GI50 (BFTC905; Homo sapiens, BFTC-905, Bladder, PIK3CA WT) was 0.966 µM. For the same compound, the tumour growth (HCC70 xenograft) was “inhibited growth more strongly”, the Category (H1299) was “Resistant (resistant (GI50>1.0 μM))” and the GI50 (H1299; Homo sapiens, NCI-H1299, Lung, PIK3CA WT) was 30 µM. For the same compound, the Category (NUGC4) was “Resistant (resistant (GI50>1.0 μM))”, the GI50 (NUGC4; Homo sapiens, NUGC-4, Stomach, PIK3CA WT) was 30 µM and the Category (HUPT3) was “Resistant (resistant (GI50>1.0 μM))”. The GI50 (HUPT3; Homo sapiens, HuP-T3, Pancreas, PIK3CA WT) was 13.4 µM, the Category (A2058) was “Resistant (resistant (GI50>1.0 μM))” and the GI50 (A2058; Homo sapiens, Skin, PIK3CA WT) was 30 µM. For the same compound, the Category (MKN1) was “Resistant (resistant (GI50>1.0 μM))”, the GI50 (MKN1; Homo sapiens, MKN-1, Stomach, PIK3CA MUT) was 1.58 µM and the Category (AMO1) was “Resistant (resistant (GI50>1.0 μM))”. For the same compound, the GI50 (AMO1; [2]) was 26.9 µM, the Category (SW1710) was “Resistant (resistant (GI50>1.0 μM))” and the GI50 (SW1710; Homo sapiens, Bladder, PIK3CA WT) was 5.34 µM. The Category (HGC27) was “Resistant (resistant (GI50>1.0 μM))”, the GI50 (HGC27; Homo sapiens, HGC-27, Stomach, PIK3CA MUT) was 1.5 µM and the Category (KP4) was “Resistant (resistant (GI50>1.0 μM))”. The GI50 (KP4; Homo sapiens, KP-4, Pancreas, PIK3CA WT) was 15.1 µM, the Category (NOMO1) was “Resistant (resistant (GI50>1.0 μM))” and the GI50 (NOMO1; Homo sapiens, NOMO-1, Blood/lymph, PIK3CA WT) was 2.17 µM. For the same compound, the Category (HCA7) was “Resistant (resistant (GI50>1.0 μM))”, the GI50 (HCA7; Homo sapiens, HCA-7, Colon, PIK3CA WT) was 15.5 µM and the Category (BXPC3) was “Resistant (resistant (GI50>1.0 μM))”. The GI50 (BXPC3; Homo sapiens, BXPC-3, Pancreas, PIK3CA WT) was 14.1 µM, the Category (DU145) was “Resistant (resistant (GI50>1.0 μM))” and the GI50 (DU145; Homo sapiens, DU-145, Prostate, PIK3CA WT) was 8.24 µM. For the same compound, the Category (HCT15) was “Resistant (resistant (GI50>1.0 μM))”, the GI50 (HCT15; Homo sapiens, HCT-15, Colon, PIK3CA MUT) was 7.27 µM and the Category (RKO) was “Resistant (resistant (GI50>1.0 μM))”. For the same compound, the GI50 (RKO; [1]) was 4.32 µM, the Category (T47D) was “Sensitive (sensitive (GI50<=1.0 μM))” and the GI50 (T47D; Homo sapiens, Breast, PIK3CA MUT) was 0.198 µM. For the same compound, the Category (EBC1) was “Resistant (resistant (GI50>1.0 μM))”, the GI50 (EBC1; Homo sapiens, EBC-1, Lung, PIK3CA WT) was 8.57 µM and the Category (QGP1) was “Resistant (resistant (GI50>1.0 μM))”. The GI50 (QGP1; Homo sapiens, QGP-1, Pancreas, PIK3CA WT) was 4.87 µM, the Category (RPM18226) was “Resistant (resistant (GI50>1.0 μM))” and the GI50 (RPM18226; [2]) was 30 µM. For the same compound, the Category (SNU739) was “Resistant (resistant (GI50>1.0 μM))” and the GI50 (SNU739; Homo sapiens, SNU-739, Liver, PIK3CA WT) was 25.9 µM.
